# Source: ChEMBL document CHEMBL1201862, “PubChem BioAssay data set” (2004)
# Counter-ions that a name gives are not always drawn. Activity calls are given as the source filed them.
# Columns and labels:
# [1] = target: Cytochrome P450 2C9 (Homo sapiens, UniProt P11712)
# [2] = target: Cytochrome P450 2C19 (Homo sapiens, UniProt P33261); test: Cytochrome panel assay with activity outcomes. Panel member name: p450-cyp2c19 Compounds with AC50 equal or less than 10 uM are considered active; type: functional
# Cytochrome P450 2C19, sequence (P33261 whole entry): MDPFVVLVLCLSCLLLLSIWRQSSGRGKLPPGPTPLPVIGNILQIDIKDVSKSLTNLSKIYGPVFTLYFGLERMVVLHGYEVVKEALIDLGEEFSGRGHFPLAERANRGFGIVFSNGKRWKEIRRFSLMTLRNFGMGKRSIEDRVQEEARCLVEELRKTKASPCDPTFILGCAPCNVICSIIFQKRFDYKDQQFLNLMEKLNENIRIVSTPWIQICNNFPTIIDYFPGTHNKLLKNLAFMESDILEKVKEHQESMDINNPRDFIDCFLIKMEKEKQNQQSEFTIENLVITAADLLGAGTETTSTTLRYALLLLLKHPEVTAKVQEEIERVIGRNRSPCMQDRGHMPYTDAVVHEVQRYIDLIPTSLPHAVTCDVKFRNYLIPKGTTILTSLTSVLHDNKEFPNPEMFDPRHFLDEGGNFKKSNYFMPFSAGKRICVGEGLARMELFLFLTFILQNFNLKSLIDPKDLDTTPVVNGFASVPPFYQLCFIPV
# [3] = target: Cytochrome P450 3A4 (Homo sapiens, UniProt P08684);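 note: CYP3A4 tested as one member of a cytochrome P450 panel screen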
# Cytochrome P450 3A4, sequence (P08684 whole entry): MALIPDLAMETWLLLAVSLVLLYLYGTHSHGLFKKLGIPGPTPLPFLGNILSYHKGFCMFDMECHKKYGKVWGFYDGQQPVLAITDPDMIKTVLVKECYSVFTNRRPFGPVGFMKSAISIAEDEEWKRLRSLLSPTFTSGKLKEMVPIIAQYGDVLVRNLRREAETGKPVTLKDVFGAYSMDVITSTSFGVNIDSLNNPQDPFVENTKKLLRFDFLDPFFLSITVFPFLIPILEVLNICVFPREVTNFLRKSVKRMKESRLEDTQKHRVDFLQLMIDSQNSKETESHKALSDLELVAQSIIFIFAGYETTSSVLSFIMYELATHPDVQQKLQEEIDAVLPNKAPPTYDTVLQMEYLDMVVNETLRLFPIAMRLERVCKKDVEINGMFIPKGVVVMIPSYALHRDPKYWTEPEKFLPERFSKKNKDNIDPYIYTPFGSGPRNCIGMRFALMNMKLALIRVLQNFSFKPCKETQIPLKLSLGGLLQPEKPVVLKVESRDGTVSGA
# [4] = fluconazole-exposed Candida albicans growth modulators – fluorescence, retest, confirmation (AID 2467); type: functional, cell-based
# [5] = system: Streptococcus sp. 'group A'; test: Streptococcus pyogenes SK(-)GAS viability under kanamycin – luminescence, BacTiterGlo, confirmation, counter-screen for streptokinase expression inhibitor project, dose response (AID 1900); type: functional, organism-based
# [6] = NIH-3T3 fibroblast cytotoxicity, dose response, cytotoxicity control, cell-based, fluorescence, Alamar Blue, secondary assay (AID 2327); type: functional;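 note: NIH-3T3 mouse fibroblasts cultured with fluconazole at 8 µg/mL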
# [7] = target: T1, Streptokinase A (Streptococcus pyogenes serotype M1, UniProt P10520); test: viability-normalized secreted streptokinase activity reduction – plasminogen activation absorbance, OD405, dose response (AID 1914); type: functional, Streptococcus pyogenes M1 GAS;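 note: secreted streptokinase activity via plasminogen activation per viability signal from cell pellet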
# T1 sequence (P10520 whole entry): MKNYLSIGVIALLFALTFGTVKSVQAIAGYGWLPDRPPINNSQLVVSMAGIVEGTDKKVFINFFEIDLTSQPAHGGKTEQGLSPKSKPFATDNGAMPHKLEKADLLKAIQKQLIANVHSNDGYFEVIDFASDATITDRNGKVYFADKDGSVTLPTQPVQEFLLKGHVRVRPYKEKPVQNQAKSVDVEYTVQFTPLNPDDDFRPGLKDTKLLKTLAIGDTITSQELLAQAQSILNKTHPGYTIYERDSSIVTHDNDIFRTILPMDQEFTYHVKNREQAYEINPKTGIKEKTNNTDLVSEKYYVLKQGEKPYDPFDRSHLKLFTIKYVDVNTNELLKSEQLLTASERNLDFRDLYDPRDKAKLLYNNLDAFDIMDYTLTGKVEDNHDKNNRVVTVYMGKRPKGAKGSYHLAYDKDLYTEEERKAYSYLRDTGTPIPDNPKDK
# [8] = system: Streptococcus; test: GAS UMAA2166 growth inhibition – luminescence, BacTiterGlo, counter-screen for streptokinase expression inhibitor project, dose response (AID 1915); type: functional, organism-based;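 note: potency for reduction of bacterial viability or growth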
# [9] = luciferase reporter signal suppression in cells – H4 neuroglioma cells, luminescence, dose response (AID 1990); type: functional, cell-based
# [10] = alpha-synuclein stem-loop luciferase translation blockers – H4 neuroglioma cells, luminescence, confirmation (AID 1988); type: functional, cell-based
# [11] = target: Cytochrome P450 2D6 (Homo sapiens, UniProt P10635);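 note: CYP2D6 member of a cytochrome P450 panel assay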
# Cytochrome P450 2D6, sequence (P10635 whole entry): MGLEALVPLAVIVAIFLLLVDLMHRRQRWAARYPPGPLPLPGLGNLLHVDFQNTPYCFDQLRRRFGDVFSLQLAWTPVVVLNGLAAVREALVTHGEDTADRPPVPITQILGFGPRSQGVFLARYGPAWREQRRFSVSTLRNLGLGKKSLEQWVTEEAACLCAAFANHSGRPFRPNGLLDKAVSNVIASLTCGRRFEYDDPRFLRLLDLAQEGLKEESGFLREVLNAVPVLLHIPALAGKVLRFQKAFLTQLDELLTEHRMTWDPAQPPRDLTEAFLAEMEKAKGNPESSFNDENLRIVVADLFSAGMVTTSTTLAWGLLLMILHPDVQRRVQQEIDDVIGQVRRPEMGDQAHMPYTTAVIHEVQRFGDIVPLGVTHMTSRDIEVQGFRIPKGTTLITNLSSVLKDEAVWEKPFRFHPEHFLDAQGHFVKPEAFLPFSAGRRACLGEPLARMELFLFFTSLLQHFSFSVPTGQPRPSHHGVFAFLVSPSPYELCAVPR
# [12] = target: T2, Zinc finger protein mex-5 (Caenorhabditis elegans, UniProt Q9XUB2); test: potency of MEX-5 RNA-binding blockers – biochemical, C. elegans, fluorescence polarization, dose response (AID 1960)
# T2 sequence (Q9XUB2 whole entry): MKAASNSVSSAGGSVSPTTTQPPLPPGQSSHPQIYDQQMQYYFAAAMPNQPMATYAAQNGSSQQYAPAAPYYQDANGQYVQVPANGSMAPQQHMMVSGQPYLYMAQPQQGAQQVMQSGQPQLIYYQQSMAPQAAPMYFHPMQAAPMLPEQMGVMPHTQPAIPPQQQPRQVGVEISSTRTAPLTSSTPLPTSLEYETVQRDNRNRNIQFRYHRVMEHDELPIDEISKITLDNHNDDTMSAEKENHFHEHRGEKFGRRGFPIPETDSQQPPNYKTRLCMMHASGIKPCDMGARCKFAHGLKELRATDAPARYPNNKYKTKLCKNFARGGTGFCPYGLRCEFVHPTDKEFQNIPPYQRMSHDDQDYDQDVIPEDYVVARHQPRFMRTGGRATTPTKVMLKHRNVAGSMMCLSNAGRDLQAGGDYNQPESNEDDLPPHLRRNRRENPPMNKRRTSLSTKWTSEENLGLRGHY
# [13] = target: T3, RNA-binding protein pos-1 (Caenorhabditis elegans, UniProt G5EF15); test: disruptors of C. elegans POS-1 RNA interaction – biochemical, fluorescence polarization, dose response (AID 1964);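 note: purified POS-1 fused to maltose binding protein made in E. coli; potency of compounds blocking POS-1 binding to fluorescent RNA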
# T3 sequence (G5EF15 whole entry): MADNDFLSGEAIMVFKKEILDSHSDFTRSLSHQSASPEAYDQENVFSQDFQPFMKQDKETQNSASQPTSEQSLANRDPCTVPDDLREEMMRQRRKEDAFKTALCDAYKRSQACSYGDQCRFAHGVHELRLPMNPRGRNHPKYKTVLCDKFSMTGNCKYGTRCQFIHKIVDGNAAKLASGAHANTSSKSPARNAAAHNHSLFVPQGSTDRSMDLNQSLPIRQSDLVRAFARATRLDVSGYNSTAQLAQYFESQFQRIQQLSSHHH
# [14] = target: T4, Corticotropin-releasing factor receptor 2/Corticotropin-releasing factor-binding protein (Homo sapiens, UniProt P24387+Q13324); test: activators of CRF receptor 2 with binding protein – uHTS hits, confirmation (AID 602473); type: functional; conditions: read-out: EC50_Mean
# T4 sequence (Q13324 whole entry): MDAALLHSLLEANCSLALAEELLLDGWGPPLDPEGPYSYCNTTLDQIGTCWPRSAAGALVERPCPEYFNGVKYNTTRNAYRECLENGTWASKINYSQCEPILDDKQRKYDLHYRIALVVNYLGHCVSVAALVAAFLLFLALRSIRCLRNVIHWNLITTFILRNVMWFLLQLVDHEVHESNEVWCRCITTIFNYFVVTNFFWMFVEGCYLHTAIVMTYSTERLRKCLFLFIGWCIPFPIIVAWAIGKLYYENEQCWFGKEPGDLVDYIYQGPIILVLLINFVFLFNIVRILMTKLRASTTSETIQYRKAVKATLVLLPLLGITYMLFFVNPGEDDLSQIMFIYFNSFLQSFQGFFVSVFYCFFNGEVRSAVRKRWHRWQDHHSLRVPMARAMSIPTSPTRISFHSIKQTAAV
# T4 sequence (P24387 whole entry): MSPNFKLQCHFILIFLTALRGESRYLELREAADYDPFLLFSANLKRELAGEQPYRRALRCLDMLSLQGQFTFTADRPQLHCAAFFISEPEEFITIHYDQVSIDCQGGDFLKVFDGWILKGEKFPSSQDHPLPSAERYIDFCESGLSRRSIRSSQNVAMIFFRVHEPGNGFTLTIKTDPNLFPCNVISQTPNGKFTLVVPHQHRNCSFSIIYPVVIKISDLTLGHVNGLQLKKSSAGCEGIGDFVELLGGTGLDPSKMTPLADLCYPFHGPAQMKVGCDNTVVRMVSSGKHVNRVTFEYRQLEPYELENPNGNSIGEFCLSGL
# [15] = target: T5, Cytochrome P450 1A2 (Homo sapiens, UniProt P05177);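 note: PubChem cytochrome P450 panel assay, CYP1A2 panel member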
# T5 sequence (P05177 whole entry): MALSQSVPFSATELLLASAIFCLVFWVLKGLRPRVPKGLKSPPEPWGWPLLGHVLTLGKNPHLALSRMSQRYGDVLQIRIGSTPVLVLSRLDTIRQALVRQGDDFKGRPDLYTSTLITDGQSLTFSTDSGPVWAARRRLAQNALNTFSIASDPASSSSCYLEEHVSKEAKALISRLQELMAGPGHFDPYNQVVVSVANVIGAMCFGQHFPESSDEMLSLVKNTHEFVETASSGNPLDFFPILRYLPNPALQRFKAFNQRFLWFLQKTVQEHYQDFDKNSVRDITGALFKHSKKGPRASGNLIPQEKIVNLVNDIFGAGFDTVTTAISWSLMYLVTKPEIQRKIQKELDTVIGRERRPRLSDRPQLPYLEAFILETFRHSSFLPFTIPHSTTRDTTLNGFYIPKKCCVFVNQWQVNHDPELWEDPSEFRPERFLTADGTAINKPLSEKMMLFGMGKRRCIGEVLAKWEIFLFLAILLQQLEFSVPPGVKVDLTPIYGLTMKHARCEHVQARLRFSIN
# Cytochrome P450 2C9, sequence (P11712 whole entry): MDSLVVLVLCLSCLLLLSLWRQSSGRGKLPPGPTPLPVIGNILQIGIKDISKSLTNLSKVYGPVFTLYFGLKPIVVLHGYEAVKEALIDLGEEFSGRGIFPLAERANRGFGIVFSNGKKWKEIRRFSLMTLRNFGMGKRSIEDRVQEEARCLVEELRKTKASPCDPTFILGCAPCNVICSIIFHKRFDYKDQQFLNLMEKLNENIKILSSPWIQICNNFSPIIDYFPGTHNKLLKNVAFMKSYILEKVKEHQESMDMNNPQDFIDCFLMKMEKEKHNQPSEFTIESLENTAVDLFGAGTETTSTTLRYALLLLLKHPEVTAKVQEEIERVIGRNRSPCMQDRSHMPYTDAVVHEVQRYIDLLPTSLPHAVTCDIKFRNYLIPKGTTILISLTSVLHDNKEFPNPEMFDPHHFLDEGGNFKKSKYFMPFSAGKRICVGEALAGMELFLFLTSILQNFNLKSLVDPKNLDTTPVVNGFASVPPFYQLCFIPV
compound,measurement,setting,value
COc1ccc(OC)c2nc(O)c(CCNS(=O)(=O)c3ccccc3)cc12,AC50,[1],14.1 µM (inconclusive)
same,AC50,[2]; read-out: AC50,3.16 µM (inconclusive)
same,AC50,[3],14.1 µM (inconclusive)
CC(=O)NNC(=S)NC(=O)C(c1ccccc1)c1ccccc1,EC50,[4],1.52 µM (active)
same,EC50,[5],3.24 µM (active)
same,EC50,[6],> 150 µM (inactive)
same,EC50,[7],> 150 µM (not active)
same,EC50,[8],10.4 µM (active)
Nc1ccn([C@@H]2O[C@H](CO)[C@@H](O)[C@@H]2O)c(=O)n1 [CYTARABINE HYDROCHLORIDE],EC50,[9],< 0.1 µM (active)
same,EC50,[10],< 0.1 µM (active)
CCN(CC)C(=O)CSc1nnc(C2CCCCC2)o1,AC50,[2]; read-out: AC50,11.2 µM (inconclusive)
O=C(O)/C=C\C(=O)NCc1ccccc1,AC50,[2]; read-out: AC50,0.0158 µM (inconclusive)
same,AC50,[11],0.794 µM (inconclusive)
CCOC(=O)Cc1csc(NC(=O)CSc2nnc(-c3ccc(NS(=O)(=O)CC)cc3)o2)n1,EC50,[4],> 38 µM (not active)
same,EC50,[6],> 150 µM (inactive)
COc1ccc(CNCCNC(=O)c2ccco2)c(OC)c1OC,EC50,[4],> 38 µM (not active)
same,EC50,[6],> 160 µM (inactive)
CC(CP(=O)(O)O)NC(=O)Cc1ccccc1 (stereo unspecified),AC50,[2],inconclusive
CCC/C=C(\CCC)C(NC(=O)c1ccc(C(=O)OC)cc1)c1ccc(C(=O)OC)cc1 (stereo unspecified),AC50,[2]; read-out: AC50,10 µM (inconclusive)
same,AC50,[11],25.1 µM (inconclusive)
O=C(CSc1nnc(-c2cccs2)n1-c1ccccc1)N1CCCC1,AC50,[1],12.6 µM (inconclusive)
same,AC50,[2]; read-out: AC50,28.2 µM (inconclusive)
same,AC50,[11],7.94 µM (inconclusive)
same,AC50,[3],28.2 µM (inconclusive)
CCC(=O)Nc1ccc(C(=O)NNC(=O)c2cccs2)cc1,AC50,[2]; read-out: AC50,0.891 µM (inconclusive)
CC(C)(C)c1ccc(C(=O)NNc2ccc(F)cc2F)cc1,EC50,[4],> 38 µM (not active)
same,EC50,[6],32.2 µM (active)
COc1ccccc1-c1ccc2ncnc(N3CCN(C)CC3)c2c1,AC50,[2]; read-out: AC50,15.8 µM (inconclusive)
same,AC50,[11],39.8 µM (inconclusive)
CCCCNCCOCCSc1ccc(Cl)cc1,AC50,[2]; read-out: AC50,17.8 µM (inconclusive)
same,AC50,[3],14.1 µM (inconclusive)
CCOC(=O)N1CCC(NC(=O)C(Cc2ccccc2)NC(=O)C2CCCCC2)CC1 (stereo unspecified),EC50,[12],> 300 µM (not active)
same,EC50,[13],> 300 µM (not active)
COc1ccc(/N=C/c2c(O)c3ccccc3n2C(C)=O)cc1,EC50,[12],> 300 µM (inconclusive)
same,EC50,[14],6.35 µM (active)
same,EC50,[13],> 300 µM (inconclusive)
CCOC(=O)c1ccc(-n2c(C)ccc2C)cc1,EC50,[12],> 300 µM (not active)
same,EC50,[13],> 300 µM (not active)
CCCc1c(O)nc(SCC(=O)N2CCCCC2)nc1O,EC50,[12],> 300 µM (not active)
same,EC50,[13],> 300 µM (not active)
Cc1ccc(C(=O)NC(=S)NNC(=O)c2cccc([N+](=O)[O-])c2)cc1,EC50,[14],2.89 µM (active)
same,EC50,[5],1.53 µM (active)
same,EC50,[7],> 150 µM (not active)
same,EC50,[8],21.7 µM (active)
CCCC[C@@H]1C[C@H]1C(NC(=O)c1cccs1)c1ccc(-c2ccccc2)cc1 (stereo partly specified),AC50,[2]; read-out: AC50,3.16 µM (inconclusive)
same,AC50,[15],2 µM (inconclusive)
same,AC50,[3],6.31 µM (inconclusive)
O=C(COC(=O)CC(c1ccccc1)c1ccccc1)NCc1ccc(Cl)cc1,EC50,[14],> 53 µM (inactive)
O=C(NNC(=O)c1csc(-c2cccnc2)n1)c1ccccc1,EC50,[12],> 300 µM (inconclusive)
same,EC50,[13],> 300 µM (not active)
COc1cc(OC)c(/C=C2/C(=O)Nc3ccccc32)c(OC)c1,AC50,[2]; read-out: AC50,31.6 µM (inconclusive)
OCCN1CCN(CCC=C2c3ccccc3Sc3ccc(Cl)cc32)CC1 [ZUCLOPENTHIXOL],AC50,[2]; read-out: AC50,2.51 µM (inconclusive)
same,AC50,[11],10 µM (inconclusive)
same,AC50,[3],12.6 µM (inconclusive)
COc1cccc(Cn2c(=O)c(-c3ccccc3)nc3cnc(OC)nc32)c1,AC50,[2]; read-out: AC50,39.8 µM (inconclusive)
same,AC50,[15],15.8 µM (inconclusive)
same,AC50,[11],39.8 µM (inconclusive)
Cc1ccc(C)c(NC(S)=NNC(=O)c2csc3c2CCC(C)C3)c1 (stereo unspecified),EC50,[4],3.32 µM (active)
same,EC50,[6],> 150 µM (inactive)
COc1cc(C(=O)Nc2ccc(-c3nnc(-c4ccco4)o3)cc2)cc(OC)c1OC,AC50,[1],7.94 µM (inconclusive)
same,AC50,[2]; read-out: AC50,6.31 µM (inconclusive)
CCCS(=O)(=O)N1CCCC(C(=O)NCC2CCCO2)C1 (stereo unspecified),AC50,[1],8.91 µM (inconclusive)
same,AC50,[2]; read-out: AC50,39.8 µM (inconclusive)
CCNc1ncc2nc(CCc3ccccc3)c(=O)n(-c3ccccc3)c2n1,AC50,[2]; read-out: AC50,31.6 µM (inconclusive)
CC(C)NS(=O)(=O)c1ccc(NC(=O)C(C)Oc2ccc(C(=O)c3ccccc3)cc2)cc1 (stereo unspecified),EC50,[14],4.6 µM (active)
N#Cc1c(N)n(-c2ccc(C(=O)O)cc2)c2nc3ccccc3nc12,EC50,[12],> 300 µM (not active)
same,EC50,[13],> 300 µM (not active)
COc1ccnc(Oc2cccc(C(F)(F)F)c2)c1C(=O)N=CNOCc1ccccc1F,EC50,[4],> 38 µM (not active)
same,EC50,[6],> 150 µM (inactive)
O=C(NCCOc1ccccc1)C1Nc2ccc(OC(F)(F)F)cc2C2C=CCC12 (stereo unspecified),EC50,[12],> 300 µM (not active)
same,EC50,[13],> 300 µM (not active)
